Where a SMILES comes first, the peptide text is derived from it. Bridges are numbered along the chain shown (N, C = ends).
What was measured:
ICR healthy mice = experiment: Single administration toxicity study: blood biochemistry and electrolytes; type: in vivo; details: single airway spray, day 14 post-dose, serum, automated biochemistry analyzer, mean ± s
Method: Specific pathogen-free (SIPF) grade ICR healthy mice (with an equal number of males and females, procured from Hunan Slaughter King Laboratory Animal Co., Changsha, China) were randomly divided into four experimental groups and received ShSPI via airway spray at doses of 0 mg/kg (control), 40 mg/kg, 80 mg/kg, or 160 mg/kg in a single administration. Following treatment, the mice were monitored for a 14-day observation period. On the fourteenth day, blood plasma samples were collected for precise measurement and analysis of hematological and biochemical parameters. The specific process is as follows.
On day 14 post-dose, approximately 1.7–2.0 mL of whole blood was collected for hematological and biochemical analyses. Hematological parameters were assessed using an automated hematology analyzer, while biochemical parameters were evaluated with an automated biochemistry analyzer. Prior to blood collection, all mice were fasted for at least 12 h. For hematological analysis, 200 μL of whole blood was immediately transferred into EDTA-containing tubes. For biochemical analysis, 1.5 mL of whole blood was placed into serum separator tubes without anticoagulant and centrifuged to isolate serum.

[1] = test system: BLM-induced idiopathic pulmonary fibrosis (IPF) mouse model; experiment: Histopathologic analysis of the lungs (H&E and Masson staining) of IPF mice; type: in vivo, ICR mice
Method: (§1) Animal Model Preparation: The peptide powder was dissolved in pre-cooled saline and filtered to remove bacteria, then a spray needle was attached to a micro-syringe to aspirate the peptide solution. A total of 56 ICR mice were anesthetized by intramuscular injection of avertin. After anesthesia, the mice were fixed supine, the tongue was gently pulled, the vocal folds were exposed with a laryngoscope, the trachea was gently inserted, and the nebulized solution was rapidly pushed and injected. Each mouse was administered 100 μL of a 0.4 mg/mL bleomycin solution via tracheal spray, with the treatment performed once. Seven days after modeling, the mice were randomly grouped for ShSPI treatment based on weight loss scores. An additional 8 mice received the vehicle (normal saline) and were designated as the sham group.
(§2) A total of 48 suitable mice were randomly divided into five groups: the model control group (MC), the positive control group (PC), and the ShSPI low-dose groups (1 mg/kg), medium-dose groups (2 mg/kg), and high-dose groups (4 mg/kg).
Drug Administration: Starting on day 7 post-modeling, ShSPI peptide treatment groups were anesthetized with intramuscular avertin and received tracheal spray administration of the peptide. The low-dose group was treated with 1 mg/kg ShSPI peptide, the medium-dose group with 2 mg/kg, and the high-dose group with 4 mg/kg. The positive control group, without anesthesia, received 200 mg/kg pirfenidone (IPFD) via oral gavage. All groups were treated once daily for seven consecutive days.
Sample Collection: Twenty-four hours after the final treatment, all ICR mice were euthanized via intramuscular injection of suforane. […]
The samples from experiment 4.1 were then processed using standard protocols for paraffin embedding, and 5 μm thick paraffin sections were prepared. […] Multiple fields were randomly selected, and the severity of alveolar inflammation in each group was quantified according to criteria such as the area of tissue affected by inflammation. […]

[2] = test system: BLM-induced idiopathic pulmonary fibrosis (IPF) mouse model; experiment: Body weight changes in BLM-induced IPF mouse model; type: in vivo, ICR mice; details: tracheal spray once daily for 7 days, BLM-induced IPF mice
Method: as §1, §2
Drug Administration: Starting on day 7 post-modeling, ShSPI peptide treatment groups were anesthetized with intramuscular avertin and received tracheal spray administration of the peptide. […]
Body Weight Monitoring: The body weight of the mice was monitored and recorded from the modeling phase to the end of treatment (a total of two weeks).

[3] = 40 mg/kg ShSPI, n = 6, * p < 0.05 vs blank control
[4] = 80 mg/kg ShSPI, n = 6, * p < 0.05 vs blank control
[5] = ShSPI tracheal spray once daily for 7 days

SMILES: CC[C@H](C)[C@@H]1NC(=O)[C@H](C)NC(=O)[C@@H]2CCCN2C(=O)[C@@H]2CSSC[C@H](NC(=O)[C@H](CO)NC(=O)[C@H](CC(N)=O)NC(=O)[C@H](CO)NC(=O)[C@H](Cc3ccc(O)cc3)NC(=O)[C@H](CCSC)NC(=O)[C@H](CCCNC(=N)N)NC(=O)CNC(=O)[C@H](Cc3ccccc3)NC(=O)[C@H](CCC(=O)O)NC(=O)[C@H](CC(=O)O)NC(=O)[C@H](Cc3ccccc3)NC(=O)[C@H](C(C)C)NC(=O)[C@@H]3CCCN3C(=O)[C@H](CCC(N)=O)NC(=O)[C@H](Cc3ccc(O)cc3)NC1=O)C(=O)N[C@@H](CCC(=O)O)C(=O)N[C@@H](CCSC)C(=O)N[C@@H](CCC(N)=O)C(=O)N[C@@H](CCCNC(=N)N)C(=O)N[C@@H](C)C(=O)N[C@@H](CCCNC(=N)N)C(=O)N[C@H](C(=O)N[C@@H](CC(C)C)C(=O)N[C@@H](CCCNC(=N)N)C(=O)NCC(=O)O)CSSC[C@H](N)C(=O)N1CCC[C@H]1C(=O)N[C@@H](CCC(N)=O)C(=O)N[C@@H](C(C)C)C(=O)N2 [ShSPI] (H-CPQVCPAIYQPVFDEFGRMYSNSCEMQRARCLRG-OH; disulfide 1-31, 5-24; N-terminus and C-terminus assumed)
- ALBII (ICR healthy mice; 40 mg/kg ShSPI, n = 6): 29.13 ± 1.27 g/L
- ALP (ICR healthy mice; 40 mg/kg ShSPI, n = 6): 85.25 ± 18.91 U/L
- ALT (ICR healthy mice; 40 mg/kg ShSPI, n = 6): 44.95 ± 22.02 U/L
- AST (ICR healthy mice; 40 mg/kg ShSPI, n = 6): 97.20 ± 13.33 U/L
- CK (ICR healthy mice; 40 mg/kg ShSPI, n = 6): 236.4 ± 108.76 U/L
- CREA-S (ICR healthy mice; 40 mg/kg ShSPI, n = 6): 21.70 ± 4.99 µmol/L
- GLO2 (ICR healthy mice; 40 mg/kg ShSPI, n = 6): 17.67 ± 0.80 g/L
- Glu-G (ICR healthy mice; 40 mg/kg ShSPI, n = 6): 9.93 ± 1.48 mmol/L
- T-Bil-VII (ICR healthy mice; 40 mg/kg ShSPI, n = 6): 1.73 ± 0.80 µmol/L
- TC (ICR healthy mice; 40 mg/kg ShSPI, n = 6): 2.09 ± 0.33 mmol/L
- TG (ICR healthy mice; 40 mg/kg ShSPI, n = 6): 1.35 ± 0.50 mmol/L
- TPII (ICR healthy mice; 40 mg/kg ShSPI, n = 6): 46.81 ± 1.48 g/L
- UREA (ICR healthy mice; 40 mg/kg ShSPI, n = 6): 17.07 ± 3.07 mmol/L
- calcium binding (ICR healthy mice; 40 mg/kg ShSPI, n = 6): 1.23 ± 0.011 mmol/L
- chloride ion (ICR healthy mice; 40 mg/kg ShSPI, n = 6): 106.80 ± 1.14 mmol/L
- potassium ion (ICR healthy mice; 40 mg/kg ShSPI, n = 6): 4.82 ± 0.27 mmol/L
- r-GT (ICR healthy mice; 40 mg/kg ShSPI, n = 6): 0.38 ± 0.20 U/L
- sodium ion (ICR healthy mice; 40 mg/kg ShSPI, n = 6): 152.39 ± 1.75 mmol/L
- calcium ionomer (ICR healthy mice; [3]): 1.23 ± 0.01 * mmol/L
- total calcium (ICR healthy mice; [3]): 2.48 ± 0.02 * mmol/L
- ALBII (ICR healthy mice; 80 mg/kg ShSPI, n = 6): 28.05 ± 1.53 g/L
- ALP (ICR healthy mice; 80 mg/kg ShSPI, n = 6): 94.75 ± 22.33 U/L
- ALT (ICR healthy mice; 80 mg/kg ShSPI, n = 6): 38.58 ± 7.12 U/L
- AST (ICR healthy mice; 80 mg/kg ShSPI, n = 6): 92.95 ± 20.45 U/L
- CK (ICR healthy mice; 80 mg/kg ShSPI, n = 6): 175.4 ± 69.9 U/L
- CREA-S (ICR healthy mice; 80 mg/kg ShSPI, n = 6): 23.10 ± 2.24 µmol/L
- GLO2 (ICR healthy mice; 80 mg/kg ShSPI, n = 6): 17.21 ± 0.82 g/L
- Glu-G (ICR healthy mice; 80 mg/kg ShSPI, n = 6): 9.71 ± 1.69 mmol/L
- T-Bil-VII (ICR healthy mice; 80 mg/kg ShSPI, n = 6): 1.47 ± 0.43 µmol/L
- TC (ICR healthy mice; 80 mg/kg ShSPI, n = 6): 2.21 ± 0.61 mmol/L
- TG (ICR healthy mice; 80 mg/kg ShSPI, n = 6): 1.21 ± 0.32 mmol/L
- TPII (ICR healthy mice; 80 mg/kg ShSPI, n = 6): 45.26 ± 1.62 g/L
- UREA (ICR healthy mice; 80 mg/kg ShSPI, n = 6): 14.79 ± 3.07 mmol/L
- calcium binding (ICR healthy mice; 80 mg/kg ShSPI, n = 6): 1.24 ± 0.05 mmol/L
- chloride ion (ICR healthy mice; 80 mg/kg ShSPI, n = 6): 106.5 ± 1.26 mmol/L
- potassium ion (ICR healthy mice; 80 mg/kg ShSPI, n = 6): 5.01 ± 0.46 mmol/L
- r-GT (ICR healthy mice; 80 mg/kg ShSPI, n = 6): 0.00 ± 1.01 U/L
- sodium ion (ICR healthy mice; 80 mg/kg ShSPI, n = 6): 150.7 ± 1.89 mmol/L
- calcium ionomer (ICR healthy mice; [4]): 1.24 ± 0.05 * mmol/L
- total calcium (ICR healthy mice; [4]): 2.49 ± 0.10 * mmol/L
- ALBII (ICR healthy mice; 160 mg/kg ShSPI, n = 6): 30.1 ± 1.28 g/L
- ALP (ICR healthy mice; 160 mg/kg ShSPI, n = 6): 98.6 ± 27.17 U/L
- ALT (ICR healthy mice; 160 mg/kg ShSPI, n = 6): 39.80 ± 7.79 U/L
- AST (ICR healthy mice; 160 mg/kg ShSPI, n = 6): 80.6 ± 16.79 U/L
- CK (ICR healthy mice; 160 mg/kg ShSPI, n = 6): 156.4 ± 75.0 U/L
- CREA-S (ICR healthy mice; 160 mg/kg ShSPI, n = 6): 19.1 ± 3.98 µmol/L
- GLO2 (ICR healthy mice; 160 mg/kg ShSPI, n = 6): 18.0 ± 1.06 g/L
- Glu-G (ICR healthy mice; 160 mg/kg ShSPI, n = 6): 9.24 ± 1.33 mmol/L
- TC (ICR healthy mice; 160 mg/kg ShSPI, n = 6): 2.26 ± 0.33 mmol/L
- TG (ICR healthy mice; 160 mg/kg ShSPI, n = 6): 1.23 ± 0.35 mmol/L
- TPII (ICR healthy mice; 160 mg/kg ShSPI, n = 6): 48.2 ± 1.79 g/L
- UREA (ICR healthy mice; 160 mg/kg ShSPI, n = 6): 13.6 ± 4.00 mmol/L
- calcium binding (ICR healthy mice; 160 mg/kg ShSPI, n = 6): 1.28 ± 0.03 mmol/L
- calcium ionomer (ICR healthy mice; 160 mg/kg ShSPI, n = 6): 1.28 ± 0.03 mmol/L
- chloride ion (ICR healthy mice; 160 mg/kg ShSPI, n = 6): 106.5 ± 1.44 mmol/L
- potassium ion (ICR healthy mice; 160 mg/kg ShSPI, n = 6): 4.68 ± 0.30 mmol/L
- r-GT (ICR healthy mice; 160 mg/kg ShSPI, n = 6): 0.31 ± 0.35 U/L
- sodium ion (ICR healthy mice; 160 mg/kg ShSPI, n = 6): 152.9 ± 1.60 mmol/L
- total calcium (ICR healthy mice; 160 mg/kg ShSPI, n = 6, * p < 0.05 vs blank control): 2.5 ± 0.06 * mmol/L
- effect on the model's damage (fibrotic lesions) ([1]; ShSPI 1 mg/kg tracheal spray once daily for 7 days, compared with 2 and 4 mg/kg): less effective
- collagen deposition in the lungs (Masson staining) [1, 5]: substantial inhibition
- lung inflammation (H&E staining) [1, 5]: substantial reduction
- body weight recovery ([2]; ShSPI low-dose group (1 mg/kg)): upward trend, albeit with a slower recovery rate
- body weight recovery ([2]; ShSPI medium- and high-dose groups (2 and 4 mg/kg)): comparable to that of the positive control group

— article PMC12116161, “An Elastase Inhibitor ShSPI from Centipede Attenuates Bleomycin-Induced Pulmonary Fibrosis” (Toxins, 2025)
